The source of these data is patent US7786117B2, “Therapeutic substituted thiazolidinones, oxazolidinones, and related compounds” (Allergan, Inc., priority 2008, dated 2010).

SMILES strings stand for the structures.

This assay relates to lashes and adjacent hairs of the eyelids. The assay can be described thus: Observation of lash and hair growth in glaucoma patients treated with bimatoprost in only one eye. The format is in vivo, human. From the text:
In the course of treating patients having glaucoma, treatment may only be appropriate in one eye. […] The lash appearance on the lids of the treated eyes would have appeared quite attractive if it represented a bilateral phenomenon. As a result of its asymmetric nature, the long lashes on one side could be construed as disturbing from a cosmetic standpoint. A systemic examination was preformed as a result of the asymmetric phenomenon. It soon became apparent that this altered appearance was not an isolated finding.
The changes in the lashes were apparent on gross inspection in several patients once attention was focused on the issue. In those with light colored hair and lashes, the differences were only seen easily with the aid of the high magnification and lighting capabilities of the slit lamp biomicroscope. In the course of glaucoma follow-up examination, attention is generally immediately focused on the eye itself. As a result of the high power magnification needed only one eye is seen at a time and the eye is seen at a high enough power that the lashes are not in focus. At these higher powers, any lash asymmetry between the two eyes is not likely to be noticed except by careful systematic comparison of the lashes and adjacent hairs of the eyelids of the two eyes.
Observed parameters leading to the conclusion that more robust hair growth occurred in the treatment area following administration of the prostaglandin analogue were multiple. They included increased length of lashed, increased number of lashes along the normal lash line, increased thickness and luster of lashes, increased auxiliary lash-like terminal hair in transitional areas adjacent to areas of normal lash growth, increased auxiliary lash-like terminal hairs at the medial and lateral canthal area, increased pigmentation of the lashes, increased numbers, increased length, as well as increased luster, and thickness of fine hair on the skin of the adjacent lid, and finally, increased perpendicular angulation of lashes and lash-like terminal hairs.

Take `CCNC(=O)CCC/C=C\C[C@@H]1[C@@H](/C=C/[C@@H](O)CCc2ccccc2)[C@H](O)C[C@@H]1O` [bimatoprost]: the “lash appearance in the treated eye versus the non-treated eye” value (a glaucoma patient treated in one eye only) was “longer, thicker, and fuller in the treated eye than in the non-treated eye”. Besides, the “differences in the lashes and adjacent hairs of the treated side” value (all patients taking the drug on a unilateral basis for longer than 6 months) is listed as “Definite differences could be identified to varying degrees”. The “hair growth in treated versus control areas, multiple parameters of hair appearance” value (many subjects, length, number, thickness, luster, pigmentation, angulation of lashes) is on record as “hair growth is stimulated”.
